{
  "source": "patent US20250122567A1",
  "about": "“Methods of Identifying and Treating Subjects having Inflammatory Subphenotypes of Asthma” (National Jewish Health, priority 2015, published 2025)",
  "key": {"HRV-16": {"system": "HRV-16", "experiment": "HRV-16 infection of ALI differentiated airway epithelial cells treated with IL-13", "type": "cell-based, human rhinovirus-16", "details": "IL-13 10 ng/ml for final 10 days of differentiation, BECs and NECs, vs vehicle"}, "DPP4": {"system": "DPP4", "experiment": "IL-13 treatment of ALI differentiated bronchial epithelial cells, DPP4 expression", "type": "cell-based", "details": "IL-13 10 ng/ml, 24 hours", "procedure": "FIGS. 12A and 12B show pairs of Air-liquid interface (ALI) differentiated bronchial epithelial cells (BEC) from 5 donors that were treated for 24 hours with IL-13 cytokine (10 ng/ml) and vehicle control. (FIG. 12A) RNA was extracted from all control and IL-13 treated ALI membranes. RNA was used in 5′ nuclease qPCR assays to determine DPP4 and housekeeping gene expression. Normalized DPP4 expression for the control and IL-13 treated cultures of a subject are connected by a line. Well-differential nasal airway epithelial cultures were generated and tested for a single donor denoted by red points. (FIG. 12B) Western blot of cell lysates for DPP4 in control and IL-13 treated BECs from all five donors."}},
  "data": [
    {"substance": "IL-13: Th2 cytokine used to treat airway epithelial cell cultures (10 ng/ml)", "values": [
      {"measurement": "HRV-16 infection (mRNA) of ALI differentiated airway epithelial cells", "setting": "HRV-16", "value": "decreases HRV-16 infection"},
      {"measurement": "DPP4 gene expression in airway epithelial cells", "setting": "DPP4; ALI differentiated BEC from 5 donors, qPCR, vs vehicle control", "value": "strongly induced"},
      {"measurement": "DPP4 protein expression in airway epithelial cells", "setting": "DPP4; BEC cell lysates from five donors, Western blot, vs control", "value": "strongly induced"}
    ]}
  ]
}
